Square brackets hold non-standard residues; d marks the D form. Ends that are not written are not given here. Peptide text beside a SMILES is read from it. Phe(4-NH2) = Nc1ccc(C[C@H](N)C(=O)O)cc1; 1Nal = N[C@@H](Cc1cccc2ccccc12)C(=O)O; d1Nal = N[C@H](Cc1cccc2ccccc12)C(=O)O; d2Nal = N[C@H](Cc1ccc2ccccc2c1)C(=O)O; Dab = NCC[C@H](N)C(=O)O

The subject of one assay is C. albicans (CA-1, Strain SLU-1). Nature of the assay: Radial diffusion assay. The format is cell-based, Candida albicans. Particulars: crude peptide; nanomoles required to achieve a net 30 mm^2 zone (log titration curve). In outline:
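Yeast at 1×10^6 CFU/mL in agarose underlayer (3% Sabouraud, 10 mM sodium phosphate pH 7.4); 2-fold peptide dilutions in D-PBS from ~1 mg/mL loaded into wells, 3 h at 37° C, then nutrient overlayer overnight. Value: pmol/well giving 30 mm^2 net clear zone, by PROBIT regression.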
For H-KVKWLIQ-NH2 [Peptide 306], the “Plate Assay (nmol), crude peptide activity” value was above 10.485 nmol. H-SKVKWLIQ-NH2 [Peptide 299]: the “Plate Assay (nmol), crude peptide activity” value was above 8.768 nmol.

Still in this assay, the particulars now being: pmoles of peptide added to well to achieve a 30 mm^2 zone, PROBIT analysis; crude or purified (P′) peptide.
On to `CC[C@H](C)[C@H](NC(=O)[C@H](CC(C)C)NC(=O)[C@@H](Cc1ccc2ccccc2c1)NC(=O)CNC(=O)[C@@H](NC(=O)[C@H](CCCCN)NC(=O)[C@H](CO)NC(=O)[C@@H](N)CCCCN)C(C)C)C(=O)N[C@@H](CCC(N)=O)C(=O)N[C@@H](CC(C)C)C(=O)N[C@@H](Cc1c[nH]c2ccccc12)C(=O)N[C@@H](Cc1c[nH]cn1)C(=O)N[C@@H](CCCCN)C(=O)N[C@@H](CCCCN)C(N)=O` [XMP.243] (H-KSKVG[d2Nal]LIQLWHKK-NH2), for which the “C. albicans pmol/30 mm^2 zone” value came to 716 pmol/30 mm^2 zone. On the same count and under the same terms, the result for H-LIQLFH-NH2 [XMP.317] reads “b (No detectable activity up to 5 μg/well)”; that for H-KSKVGWLIQLFHKF-NH2 [XMP.96], 1856 pmol/30 mm^2 zone; that for H-KSKVGWLIKLFHKK-NH2 [XMP.92], 299 pmol/30 mm^2 zone. Same read-out and setting: with H-KSKVKWLIKLFHKK-NH2 [XMP.100] the figure was 462 pmol/30 mm^2 zone. Still for that read-out and setting: the result for H-KSKVFWLIQLFHKK-NH2 [XMP.95] reads above 1398 pmol/30 mm^2 zone; that for H-VKWLIQLFH-NH2 [XMP.296], >5,573 pmol/30 mm^2 zone; that for `CC[C@H](C)[C@H](NC(=O)[C@H](CC(C)C)NC(=O)[C@H](Cc1c[nH]c2ccccc12)NC(=O)CNC(=O)[C@@H](NC(=O)[C@H](CCCCN)NC(=O)[C@H](CO)NC(=O)[C@@H](N)CCCCN)C(C)C)C(=O)N[C@@H](CCC(N)=O)C(=O)N[C@@H](CC(C)C)C(=O)N[C@@H](Cc1c[nH]c2ccccc12)C(=O)N[C@@H](Cc1cccc2ccccc12)C(=O)N[C@@H](CCCCN)C(=O)N[C@@H](CCCCN)C(N)=O` [XMP.234] (H-KSKVGWLIQLW[1Nal]KK-NH2), “b (No detectable activity up to 5 μg/well)”. On to H-WLIQLFH-NH2 [XMP.309], for which the “C. albicans pmol/30 mm^2 zone” value is “b (No detectable activity up to 5 μg/well)”. Still for that read-out and setting: with `CC[C@H](C)[C@H](NC(=O)[C@H](CC(C)C)NC(=O)[C@H](Cc1c[nH]c2ccccc12)NC(=O)[C@H](Cc1ccc(N)cc1)NC(=O)[C@@H](NC(=O)[C@H](CCCCN)NC(=O)[C@H](CO)NC(=O)[C@@H](N)CCCCN)C(C)C)C(=O)N[C@@H](CCC(N)=O)C(=O)N[C@@H](CC(C)C)C(=O)N[C@@H](Cc1ccccc1)C(=O)N[C@@H](Cc1c[nH]cn1)C(=O)N[C@@H](CCCCN)C(=O)N[C@@H](CCCCN)C(N)=O` [XMP.134] the figure was 1255 pmol/30 mm^2 zone; with `CC[C@H](C)[C@H](NC(=O)[C@H](CC(C)C)NC(=O)[C@H](Cc1c[nH]c2ccccc12)NC(=O)CNC(=O)[C@@H](NC(=O)[C@H](CCCCN)NC(=O)[C@H](CO)NC(=O)[C@@H](N)CCCCN)C(C)C)C(=O)N[C@@H](CCC(N)=O)C(=O)N[C@@H](CC(C)C)C(=O)N[C@@H](Cc1ccccc1)C(=O)N[C@@H](Cc1cccc2ccccc12)C(=O)N[C@@H](CCCCN)C(=O)N[C@@H](CCCCN)C(N)=O` [XMP.110] (H-KSKVGWLIQLF[1Nal]KK-NH2), above 2922 pmol/30 mm^2 zone; with H-KSAVGWLIQLFHKK-NH2 [XMP.33], 603 pmol/30 mm^2 zone.

With KKVLIQLKK-NH2 [XMP.343], the “C. albicans pmol/30 mm^2 zone” value was found to be 245 pmol/30 mm^2 zone. Still for that read-out and setting: with H-KSKVGWLITLFHKK-NH2 [XMP.106] the figure was 1032 pmol/30 mm^2 zone; with `CC[C@H](C)[C@H](NC(=O)[C@H](CC(C)C)NC(=O)[C@@H](Cc1ccc2ccccc2c1)NC(=O)CNC(=O)[C@@H](NC(=O)[C@H](CCCCN)NC(=O)[C@H](CO)NC(=O)[C@@H](N)CCCCN)C(C)C)C(=O)N[C@@H](CC(C)C)C(=O)N[C@@H](CC(C)C)C(=O)N[C@@H](Cc1c[nH]c2ccccc12)C(=O)N[C@@H](Cc1c[nH]cn1)C(=O)N[C@@H](CCCCN)C(=O)N[C@@H](CCCCN)C(N)=O` [XMP.244] (H-KSKVG[d2Nal]LILLWHKK-NH2), 859 pmol/30 mm^2 zone. `CC[C@H](C)[C@H](NC(=O)[C@H](CC(C)C)NC(=O)[C@H](Cc1c[nH]c2ccccc12)NC(=O)[C@H](CCN)NC(=O)[C@@H](N)CCN)C(=O)N[C@@H](CCC(N)=O)C(=O)N[C@@H](CC(C)C)C(=O)N[C@@H](CCN)C(=O)N[C@@H](CCN)C(N)=O` [XMP.339] (H-[Dab][Dab]WLIQL[Dab][Dab]-NH2): the “C. albicans pmol/30 mm^2 zone” value was 2,878 pmol/30 mm^2 zone. Still for that read-out and setting: the result for `CC[C@H](C)[C@H](NC(=O)[C@H](CC(C)C)NC(=O)[C@H](Cc1cccc2ccccc12)NC(=O)[C@H](Cc1ccc(N)cc1)NC(=O)[C@@H](NC(=O)[C@H](CCCCN)NC(=O)[C@H](CO)NC(=O)[C@@H](N)CCCCN)C(C)C)C(=O)N[C@@H](CCC(N)=O)C(=O)N[C@@H](CC(C)C)C(=O)N[C@@H](Cc1ccccc1)C(=O)N[C@@H](Cc1c[nH]cn1)C(=O)N[C@@H](CCCCN)C(=O)N[C@@H](CCCCN)C(N)=O` [XMP.225] (H-KSKV[Phe(4-NH2)][1Nal]LIQLFHKK-NH2) reads >2,506 pmol/30 mm^2 zone; that for H-SKVKWLIQLFH-NH2 [XMP.287], >3,509 pmol/30 mm^2 zone; that for “XMP.409: S - K - 153-157 - K - K, A @ 154 (L) (SEQ ID NO:240) (SKWAIQLKK)”, 795 pmol/30 mm^2 zone.

As for `CC[C@H](C)[C@H](NC(=O)[C@H](CC(C)C)NC(=O)[C@H](Cc1cccc2ccccc12)NC(=O)CNC(=O)[C@@H](NC(=O)[C@H](CCCCN)NC(=O)[C@H](CO)NC(=O)[C@@H](N)CCCCN)C(C)C)C(=O)N[C@@H](CCC(N)=O)C(=O)N[C@@H](Cc1cccc2ccccc12)C(=O)N[C@@H](Cc1ccccc1)C(=O)N[C@@H](Cc1c[nH]cn1)C(=O)N[C@@H](CCCCN)C(=O)N[C@@H](CCCCN)C(N)=O` [XMP.223] (H-KSKVG[1Nal]LIQ[1Nal]FHKK-NH2), the “C. albicans pmol/30 mm^2 zone” value is recorded as “b (No detectable activity up to 5 μg/well)”. The same measure, in the same setting: the result for “XMP.380: K - K - Q - L - L - L - L - K - K (SEQ ID NO:211) (KKQLLLLKK)” reads 886 pmol/30 mm^2 zone; that for H-KSKVGKLIQLFHKK-NH2 [XMP.135], 428 pmol/30 mm^2 zone; that for H-KSKVKVLIQLFHKK-NH2 [XMP.266], 984 pmol/30 mm^2 zone. For the compound `CC[C@H](C)[C@H](NC(=O)[C@H](CC(C)C)NC(=O)[C@@H](Cc1cccc2ccccc12)NC(=O)CNC(=O)[C@@H](NC(=O)[C@H](CCCCN)NC(=O)[C@H](CO)NC(=O)[C@@H](N)CCCCN)C(C)C)C(=O)N[C@@H](CCC(N)=O)C(=O)N[C@@H](CC(C)C)C(=O)N[C@@H](Cc1ccccc1)C(=O)N[C@@H](Cc1c[nH]cn1)C(=O)N[C@@H](CCCCN)C(=O)N[C@@H](CCCCN)C(N)=O` [XMP.129] (H-KSKVG[d1Nal]LIQLFHKK-NH2), the “C. albicans pmol/30 mm^2 zone” value was 2117 pmol/30 mm^2 zone.

The assay is the same for the next values; noted with them: pmoles of peptide added to well to achieve a 30 mm^2 zone, PROBIT analysis; crude or purified (P′) peptide; listed as XMP.225P′.
Regarding `CC[C@H](C)[C@H](NC(=O)[C@H](CC(C)C)NC(=O)[C@H](Cc1cccc2ccccc12)NC(=O)[C@H](Cc1ccc(N)cc1)NC(=O)[C@@H](NC(=O)[C@H](CCCCN)NC(=O)[C@H](CO)NC(=O)[C@@H](N)CCCCN)C(C)C)C(=O)N[C@@H](CCC(N)=O)C(=O)N[C@@H](CC(C)C)C(=O)N[C@@H](Cc1ccccc1)C(=O)N[C@@H](Cc1c[nH]cn1)C(=O)N[C@@H](CCCCN)C(=O)N[C@@H](CCCCN)C(N)=O` [XMP.225] (H-KSKV[Phe(4-NH2)][1Nal]LIQLFHKK-NH2), the “C. albicans pmol/30 mm^2 zone” value is reported as >2,736 pmol/30 mm^2 zone.

The same assay, now with this note: pmoles of peptide added to well to achieve a 30 mm^2 zone, PROBIT analysis; crude or purified (P′) peptide; listed as XMP.339P′.
`CC[C@H](C)[C@H](NC(=O)[C@H](CC(C)C)NC(=O)[C@H](Cc1c[nH]c2ccccc12)NC(=O)[C@H](CCN)NC(=O)[C@@H](N)CCN)C(=O)N[C@@H](CCC(N)=O)C(=O)N[C@@H](CC(C)C)C(=O)N[C@@H](CCN)C(=O)N[C@@H](CCN)C(N)=O` [XMP.339] (H-[Dab][Dab]WLIQL[Dab][Dab]-NH2): the “C. albicans pmol/30 mm^2 zone” value is 2,599 pmol/30 mm^2 zone.

(Values after patent publication US6664231B1, “Anti-fungal peptides” (priority 1993, dated 2003).)
